EC50 data for three compounds are collected here from BindingDB's records for doi:10.1016/j.bmcl.2010.06.084 (Phenex Pharmaceuticals, 2010).

Where only a bound is given, the exact number is not on record here.

As usually defined, the EC50 is the concentration giving half of the maximal effect.

The data set concerns the target T1, Nuclear receptor subfamily 1 group I member 2 (Homo sapiens, UniProt O75469).
T1 sequence (O75469 whole entry): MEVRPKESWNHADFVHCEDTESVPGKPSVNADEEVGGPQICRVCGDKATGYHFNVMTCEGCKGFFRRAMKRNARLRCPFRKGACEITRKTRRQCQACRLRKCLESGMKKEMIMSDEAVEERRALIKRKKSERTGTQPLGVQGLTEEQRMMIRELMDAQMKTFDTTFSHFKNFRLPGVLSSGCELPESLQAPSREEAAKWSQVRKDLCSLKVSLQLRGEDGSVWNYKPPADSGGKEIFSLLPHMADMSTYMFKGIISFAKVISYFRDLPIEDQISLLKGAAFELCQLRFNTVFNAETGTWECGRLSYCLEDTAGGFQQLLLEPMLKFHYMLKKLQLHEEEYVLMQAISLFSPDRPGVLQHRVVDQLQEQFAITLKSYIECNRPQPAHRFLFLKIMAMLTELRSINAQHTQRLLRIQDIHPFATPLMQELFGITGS
Description: Agonist activity at PXR-LBD expressed in HEK293 cells assessed as Gal4-DBD interaction by cellular mammalian one hybrid assay.
With `CN(Cc1cccc(C(=O)O)c1)c1ccc(OCc2c(-c3c(Cl)cccc3Cl)noc2C2CC2)nc1C(F)(F)F` [3-(((6-((5-cyclopropyl-3-(2,6-dichlorophenyl)isoxazol-4-yl)methoxy)-2-(trifluoromethyl)pyridin-3-yl)(methyl)amino)methyl)benzoic acid], the EC50 came to 390 nM.
With `CC(C)c1onc(-c2c(Cl)cccc2Cl)c1COc1ccc(N(C)Cc2ccc(C(=O)O)cc2)c(C(F)(F)F)n1` [4-(((6-((3-(2,6-dichlorophenyl)-5-isopropylisoxazol-4-yl)methoxy)-2-(trifluoromethyl)pyridin-3-yl)(methyl)amino)methyl)benzoic acid] the figure was above 1280 nM.
In the case of `CN(Cc1ccc(C(=O)O)cc1)c1ccc(OCc2c(-c3c(Cl)cccc3Cl)noc2C2CC2)nc1C(F)(F)F` [4-(((6-((5-cyclopropyl-3-(2,6-dichlorophenyl)isoxazol-4-yl)methoxy)-2-(trifluoromethyl)pyridin-3-yl)(methyl)amino)methyl)benzoic acid], the EC50 was found to be 3870 nM.
